Experimental data published in patent publication US6395738B1, “Benzofuran derivatives” (Kyowa Hakko Kogyo Co., Ltd., priority 1997, dated 2002).
Converted amounts (≈) assume the structure as drawn. Structures can show the parent of a compound that is named as a salt. Where two headings read alike, the source gives them in different places.

Legend:
[1] = test system: TNF α; experiment: Inhibitory activity on production of TNF α in mouse model with LPS-induced sepsis; assay type: in vivo, BALB/c male mice; details: for Ratio of inhibition (%) of TNF α production: Dose (mg) 30, orally administered 90 minutes before LPS i.v., serum TNF α by ELISA 1 hour after LPS; for inhibitory activity on production of TNF α (in words): summary of Table 3
[2] = test system: Male Sunkus murinus; experiment: Vomiting test on male Sunkus; assay type: in vivo; details: for Number of animals with vomiting/Number of tested animals: Dose (mg) 10, intraperitoneal, observed for 1 hour
Protocol: Vomiting Test on Male Sunkus
Male Sunkus murinus weighing about 60 g, 5 to 15 animals/group, were used in the test According to the method of Matsuki et al. (Japan J. Pharmacol., 48, 303 (1988)), each Sunkus animal was isolated and left in a wire-netting cage (15 cm width×21 cm length×15 cm height). Each test compound was suspended in physiological saline containing 0.5% Tween 80 and then intraperitoneally (i.p.) administered into each animal in a dose of 10 μl/g. […] The results were expressed in the number of animals with vomiting/the number of tested animals in the group given the test compound.
Compounds P and Q were used as the comparative compounds.

[3] = target: T1, Recombinant Human PDE IV Enzyme (HSPDE4A) (Homo sapiens, UniProt P27815); experiment: Inhibition test on recombinant human PDE IV enzyme; assay type: biochemical; details: [3H]cAMP substrate
T1 construct: except that 223 amino acids have been deleted from the N-terminal thereof; made in house; host or cells: E. coli
Protocol: Inhibition Test on Recombinant Human PDE IV Enzyme
Human phosphodiesterase cDNA (HSPDE4A) was isolated from testicles. Its predicted amino acid sequence is identical with the sequence (HSPDE4A5) reported by Bolger, G. et al. (Mol. Cell. Biol., 6558 (1993)) except that 223 amino acids have been deleted from the N-terminal thereof. This recombinant protein was expressed by an E. coli expression plasmid and then purified. The PDE activity was measured in the following 2-step process according to the method of Kincaid, R. and Manganiello, V. [Method. Enzymol., 159, 457 (1988)]. The substrate used was [^3H]cAMP (final concentration: […]), and the reaction was performed in a standard mixture containing N,N-bis(2-hydroxyethyl)-2-aminoethanesulfonic acid (50 mmol/l, pH 7.2), MgCl2 (1 mmol/l) and soybean trypsin inhibitor (0.1 mg/ml). The reaction was initiated by adding the enzyme thereto, and the mixture was incubated at 30° C. for 10 to 30 minutes. The reaction was quenched by hydrochloric acid, and the formed 5′-AMP was completely decomposed with […]. This sample was subjected to chromatography on DEAE-Sephadex A-25, and the eluted [^3H]adenosine was counted with a scintillation counter. The test compound was added after dissolved (concentration: 1.7%) in DMSO.

[4] = Water solubility; assay type: physicochemical
Protocol: Further, Compound (I) has an amide structure containing a piperazine ring at the 2-position of the benzofuran skeleton and can be converted into a pharmaceutically acceptable acid addition salt. […] For example, Compound 1 upon conversion into monohydrochloride becomes dissolved in water at a ratio of 7.4 μg/ml.

[5] = concentration of test compound 10^−7 mol/L
[6] = concentration of test compound 10^−8 mol/L

T1 sequence (P27815 224-886 limits assumed): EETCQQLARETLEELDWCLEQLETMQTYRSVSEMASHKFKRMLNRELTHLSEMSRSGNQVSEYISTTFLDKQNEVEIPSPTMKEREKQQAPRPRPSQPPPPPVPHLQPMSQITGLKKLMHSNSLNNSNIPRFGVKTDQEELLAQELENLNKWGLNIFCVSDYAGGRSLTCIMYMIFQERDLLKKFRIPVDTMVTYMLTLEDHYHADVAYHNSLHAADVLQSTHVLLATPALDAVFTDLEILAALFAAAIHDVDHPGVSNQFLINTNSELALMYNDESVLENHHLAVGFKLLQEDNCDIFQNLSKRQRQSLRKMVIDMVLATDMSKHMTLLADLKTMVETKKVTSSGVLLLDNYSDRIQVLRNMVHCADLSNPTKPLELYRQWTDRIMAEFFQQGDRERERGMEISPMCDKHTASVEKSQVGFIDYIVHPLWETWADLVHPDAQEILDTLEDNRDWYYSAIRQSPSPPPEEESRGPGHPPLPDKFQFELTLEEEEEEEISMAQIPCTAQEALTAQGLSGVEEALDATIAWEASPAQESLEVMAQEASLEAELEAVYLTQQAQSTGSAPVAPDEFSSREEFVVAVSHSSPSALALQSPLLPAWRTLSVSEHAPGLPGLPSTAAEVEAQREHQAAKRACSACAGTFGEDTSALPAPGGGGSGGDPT

Structure (SMILES) | Ratio of inhibition (%) of TNF α production [1] [%] | Number of animals with vomiting/Number of tested animals [2] | melting point [°C] | Ratio of inhibition (%) [3, 5] [%] | Ratio of inhibition (%) [3, 6] [%] | inhibitory activity on production of TNF α (in words) [1] | vomiting as a side effect (in words) ([2]; summary of Table 4) | solubility ([4]; read-out: water solubility) [µg/mL] | solubility ([4]; Compound 1 upon conversion into monohydrochloride, read-out: dissolved in water (water solubility)) [µg/mL]
COc1ccc(C(=O)Cc2c(Cl)cncc2Cl)c2cc(C(=O)N3CCN(C)CC3)oc12 [Compound 13, 4-[2-(3,5-Dichloro-4-pyridyl)-1-oxoethyl]-2-(4-methyl-1-piperazinyl)carbonyl-7-methoxybenzofuran] | 65 | 0/5 | 160 to 161 | – | – | – | – | – | –
COc1ccc(C(=O)Nc2c(Cl)cncc2Cl)c2cc(C(=O)N3CCN(CCO)CC3)oc12 [Compound 2, 4-(3,5-Dichloro-4-pyridyl)carbamoyl-2-[4-(2-hydroxyethyl)-1-piperazinyl]carbonyl-7-methoxybenzofuran] | 65 | 0/5 | 164 to 165 | 72 | 22 | – | – | – | –
COc1ccc(C(=O)Cc2c(Cl)cncc2Cl)c2cc(C(=O)N3CCN(CCO)CC3)oc12 [Compound 14, 4-[2-(3,5-Dichloro-4-pyridyl)-1-oxoethyl]-2-[4-(2-hydroxyethyl)-1-piperazinyl]carbonyl-7-methoxybenzofuran] | 65 | 0/5 | 155 to 156 | – | – | – | – | – | –
COc1ccc(C(=O)Cc2ccncc2)c2c1OC1(CCCC1)C2 [Compound P, 7-methoxy-4-[1-oxo-2-(4-pyridyl)ethyl]-spiro[2,3-dihydrobenzofuran-2,1′-cyclopentane].hydrochloride, reference compound] | 81 | 5/5 | – | – | – | high inhibitory activity | caused vomiting | – | –
COc1ccc(C(=O)Nc2c(Cl)cncc2Cl)c2cc(C(=O)c3ccccc3)oc12 [Compound Q, 2-benzoyl-4-(3,5-dichloro-4-pyridyl)carbamoyl-7-methoxybenzofuran, reference compound] | 30 | 0/5 | – | – | – | high inhibitory activity | – | ≤ 1 | –
COc1ccc(C(=O)Nc2c(Cl)cncc2Cl)c2cc(C(=O)N3CCN(C)CC3)oc12 [Compound 1, 4-(3,5-Dichloro-4-pyridyl)carbamoyl-7-methoxy-2-(4-methyl-1-piperazinyl)carbonylbenzofuran] | 68 | 0/5 | 224 to 225 | 75 | 25 | – | – | – | 7.4 (≈ 16 µM)
